This passage reports IC50 results from patent US7572799B2, “Pyrazolo[4,3-d]pyrimidines as Phosphodiesterase Inhibitors” (Pfizer Inc, priority 2003, dated 2009).

In the assay the target is PDE-5 (UniProt O76074). Nature of the assay: In vitro PDE inhibitory activity against PDE5 (batch method or scintillation proximity assay). Format: biochemical, human. The settings on record: representative compounds. An excerpt:
The compounds of the invention are inhibitors of cyclic guanylate monophosphate (cGMP)-specific phosphodiesterase type 5 (PDE-5 inhibitors).
The required PDE enzymes can be isolated from a variety of sources, including human corpus cavernosum, human and rabbit platelets, human cardiac ventricle, human skeletal muscle and bovine retina, essentially by a modification of the method of Thompson, W J et al.; Biochemistry 18(23), 5228-5237, 1979, as described by Ballard S A et al.; J. Urology 159(6), 2164-2171, 1998. In particular, cGMP-specific PDE5 and cGMP-inhibited cAMP PDE3 can be obtained from human corpus cavernosum tissue, human platelets or rabbit platelets; cGMP-stimulated PDE2 was obtained from human corpus cavernosum; calcium/calmodulin (Ca/CAM)-dependent PDE1 from human cardiac ventricle; cAMP-specific PDE4 from human skeletal muscle; and photoreceptor PDE6 from bovine retina. Phosphodiesterases 7-11 can be generated from full length human recombinant clones transfected into SF9 cells.
Assays can be performed either using a modification of the “batch”method of Thompson W J and Appleman M M; Biochemistry 10(2), 311-316, 1971, essentially as described by Ballard S A et al.; J. Urology 159(6), 2164-2171, 1998, or using a scintillation proximity assay for the direct detection of [^3H]-labelled AMP/GMP using a modification of the protocol described by Amersham plc under product code TRKQ7090/7100. In summary, for the scintillation proximity assay the effect of PDE inhibitors was investigated by assaying a fixed amount of enzyme in the presence of varying inhibitor concentrations and low substrate, (cGMP or cAMP in a 3:1 ratio unlabelled to [^3H]-labeled at a concentration of ˜⅓ Km, or less) such that IC50≅Ki. The final assay volume was made up to 100 μl with assay buffer [20 mM Tris-HCl pH 7.4, 5 mM MgCl2, 1 mg/ml bovine serum albumin]. Reactions were initiated with enzyme, incubated for 30-60 min at 30° C. to give <30% substrate turnover and terminated with 50 μl yttrium silicate SPA beads (containing 3 mM of the respective unlabelled cyclic nucleotide for PDEs 9 and 11).
On the technique in general: SPA uses beads or plates that emit light when radiolabelled molecules are held near them.

Like-named read-outs stand apart in the source and are kept apart here.

A word on the IC50: it is the concentration that inhibits the measured activity by half. With `CCOCCn1nc(-c2nc(=O)o[nH]2)c2nc(N(C)CC)nc(Nc3cc(C)ccn3)c21` [Example 76], for the setting “read-out: IC50”, the IC50 is 0.465 nM.

In the case of `CCOCCn1nc(C(=O)O)c2nc(N(C)C)nc(Nc3cc(C)ccn3)c21` [Example 14], the 50% inhibitory concentration (IC50) (read-out: IC50) stood at 8.75 nM.

With `CCOCCn1nc(C(=O)O)c2nc(N(C)CC)nc(Nc3cc(C)ccc3F)c21` [Example 101], the half-inhibitory concentration (IC50) (read-out: IC50) came to 8.45 nM.

For `CCOCCn1nc(C(=O)O)c2nc(N(C)C(C)C)nc(N[C@@H]3CCOC3)c21` [Example 67], half-maximal inhibition (IC50) was put at 100 nM.

Take `CCOCCn1nc(C(=O)O)c2nc(N[C@@H](C)CC)nc(Nc3cc(C)ccn3)c21` [Example 55]: the IC50 (read-out: IC50) came to 2.6 nM.

For `Cc1ccnc(Nc2nc(N(C)C(C)C)nc3c(C(=O)NS(C)(=O)=O)nn(CCOCC(F)F)c23)c1` [Example 181], the IC50 (read-out: IC50) was 1.29 nM.

Regarding `CCOCCn1nc(C(=O)O)c2nc(N(C)C(C)C)nc(Nc3ccnc(C)n3)c21` [Example 72], for the setting “read-out: IC50”, the IC50 came to 59.2 nM.

As to `CCOCCn1nc(C(=O)O)c2nc(N(CC)CC)nc(Nc3ccc(=O)n(C)c3)c21` [Example 125, 5-(Diethylamino)-1-(2-ethoxyethyl)-7-[(1-methyl-6-oxo-1,6-dihydropyridin-3-yl)amino]-1H-pyrazolo[4,3-]pyrimidine-3-carboxylic acid], under “read-out: IC50”, the IC50 came to 1.53 nM.

Regarding `Cc1ccnc(Nc2nc(N(C)C(C)C)nc3c(C(=O)O)nn(CCOCC(F)(F)F)c23)c1` [Example 126, 5-[Isopropyl(methyl)amino]-7-[(4-methylpyridin-2-yl)amino]-1-[2-(2,2,2-trifluoroethoxy)ethyl]-1H-pyrazolo[4,3-d]pyrimidine-3-carboxylic acid], for the setting “read-out: IC50”, the IC50 was determined as 3.05 nM.

Regarding `CCOCCn1nc(C(=O)O)c2nc(N(C)C(C)C)nc(Nc3cccc(C)c3)c21` [Example 94], under “read-out: IC50”, the IC50 was 0.303 nM.

Consider `CO[C@H](C)Cn1nc(C(=O)O)c2nc(N(C)C)nc(Nc3cc(C)ccn3)c21` [Example 64], for which the IC50 (read-out: IC50) is 100 nM.

In the case of `CCOCCn1nc(C(=O)O)c2nc(N(C)C(C)C)nc(Nc3cc(F)ccc3F)c21` [Example 92], the IC50 (read-out: IC50) stood at 41 nM.

Turning to `CCOCCn1nc(C(=O)O)c2nc(N3CCCC3C)nc(Nc3cc(C)ccn3)c21` (stereo not shown) [Example 53], the IC50 (read-out: IC50) amounted to 0.797 nM.

Turning to `Cc1ccnc(Nc2nc(N(C)C)nc3c(C(=O)O)nn(CC4CCCCO4)c23)c1` (stereo not shown) [Example 59], the IC50 came to 43.6 nM.

In the case of `CCOCCn1nc(C(=O)O)c2nc(N(C)CC)nc(Nc3ccc(F)c(C)c3)c21` [Example 87], the IC50 (read-out: IC50) turned out to be 0.087 nM.

In the case of `CCOCCn1nc(C(=O)O)c2nc(N(C)C(C)C)nc(Nc3ccc(F)c(C)c3)c21` [Example 85], where the note is “read-out: IC50”, the IC50 stood at 0.055 nM.

`CCOCCn1nc(C(=O)O)c2nc(N(CC)CC)nc(N[C@@H]3CCOC3)c21` [Example 68] displayed an IC50 of 100 nM.

Turning to `CCN(C)c1nc(Nc2ccc(F)c(C)c2)c2c(n1)c(C(=O)O)nn2CCOCC(F)(F)F` [Example 137], the IC50 (read-out: IC50) is 0.068 nM.

Take `CCN(CC)c1nc(Nc2cc(C)ccn2)c2c(n1)c(C(=O)NS(C)(=O)=O)nn2CCOCC(F)F` [Example 182]: the IC50 (read-out: IC50) came out at 1.4 nM.

On to `CCOCCn1nc(C(=O)O)c2nc(N(C)C(C)C)nc(Nc3cnccn3)c21` [Example 29], for which the IC50 (read-out: IC50) came out at 106 nM.

`CCCN(CC1CC1)c1nc(Nc2cc(C)ccn2)c2c(n1)c(C(=O)O)nn2CCOCC` [Example 49]: the IC50 (read-out: IC50) is 4.92 nM.

As for `Cc1cccc(Nc2nc(N(C)C(C)C)nc3c(C(=O)O)nn(CCOCC(F)(F)F)c23)c1` [Example 138], the IC50 (read-out: IC50) turned out to be 0.065 nM.

For `CCOCCn1nc(C(=O)O)c2nc(N(C)C(C)C)nc(NC3CCCC3)c21` [Example 31], the IC50 was 43.4 nM.

`CCOCCn1nc(C(=O)O)c2nc(N(C)C3CCC3)nc(N[C@@H]3CCOC3)c21` [Example 69] registered an IC50 of 100 nM.

As for `CCOCCn1nc(-c2nc(=O)o[nH]2)c2nc(N(C)C(C)C)nc(Nc3cc(C)ccn3)c21` [Example 75, 3-[1-(2-Ethoxyethyl)-5-(N-isopropyl-N-methylamino)-7-(4-methylpyridin-2-ylamino)-1H-pyrazolo[4,3-d]pyrimidin-3-yl]-2H-1,2,4-oxadiazol-5-one], under “read-out: IC50”, the IC50 was found to be 0.371 nM.
